According to patent US20080247991A1, “Solution Additives For the Attenuation of Protein Aggregation” (priority 2004, published 2008):

Assays:
carbonic anhydrase II [1] = biological target: T1, carbonic anhydrase II (Bos taurus, UniProt P00921); assay: Size exclusion HPLC of multimers formed during refolding of carbonic anhydrase; set-up: purchased Sigma-Aldrich C2522; species or system bovine; conditions: for A2, percentage of total carbonic anhydrase / A3-5, percentage of total carbonic anhydrase / A6-15, percentage of total carbonic anhydrase / M (monomer), percentage of total carbonic anhydrase / Large multimers, percentage of total carbonic anhydrase: 0.5 M additive; for Large multimers, percentage of total carbonic anhydrase: inferred by difference
Description: Size exclusion HPLC experiments were performed to analyze the distribution of multimers formed during refolding. CA was refolded with three different additives, 0.5M NaCl, 0.5M GuHCl, and 0.5M ArgHCl, relative to a base refolding buffers of 0.5M GuHCl, as done in the esterase activity assays above. […] Other than this protein concentration difference, these experiments allow direct comparison of how an additional 0.5M of the three different cations affect refolding.
The samples were not filtered prior to introduction into the HPLC column.
Size Exclusion HPLC—Size exclusion HPLC (SE-HPLC) experiments were performed on a Beckman System Gold HPLC instrument equipped with a Tosohaas G3000SWXL size exclusion column and a UV detector. 30 μl samples were introduced to the column by a constant flow of 1 ml/min mobile phase. Each sample ran for 15 minutes, with carbonic anhydrase eluting between 6 and 10 minutes, depending on its molecular weight and buffer. […] A mixture of lysozyme, carbonic anhydrase, and bovine serum albumin (monomer and dimer) was used as a standard to calibrate molecular weight to retention time. Using this calibration curve and the breakthrough time of the column, the largest multimer that could pass through the column was a 15-mer. When significant mass was missing from a chromatogram, large multimers were quantitated by difference. The presence of large multimers was confirmed via turbidity or dynamic light scattering for each buffer. The instrument was cleaned with 30 μl injections of 4M GuHCl, a denaturing concentration found to dissociate and elute precipitates and large soluble carbonic anhydrase multimers.

carbonic anhydrase II [2] = biological target: T1, carbonic anhydrase II; assay: Carbonic anhydrase refolding yield by esterase activity (pNPA); conditions: for α/α0 / α (refolding selectivity parameter, kr/kagg): 0.5 M additive, base buffer 0.5 M GuHCl; for α/α0: relative to 0.5M NaCl; for α (refolding selectivity parameter, kr/kagg): fit to second-order aggregation model; for order of yield of active protein as a function of buffer additive: equimolar (0.5M) additives
Description: Esterase activity assays were performed as a function of initial unfolded protein concentration and buffer composition to determine how equimolar concentrations of NaCl, ArgHCl, and GuHCl each affected refolding yield (FIG. 16).
High concentrations of carbonic anhydrase (>300 μM) were denatured in 6M GuHCl and equilibrated overnight. Refolding was initiated by dilution to 0.5M GuHCl with 50 mM Tris-HCl buffer, pH 7.5. This final GuHCl concentration was selected because it yields a mixture of active, refolded protein and aggregates. The distribution of this mixture was analyzed via esterase activity, size exclusion HPLC, and dynamic light scattering as described above.
Carbonic Anhydrase Esterase Activity—Esterase activity of carbonic anhydrase was assessed using para-nitrophenylacetate (pNPA) as the substrate as described previously. […] Briefly, 10 μl samples of carbonic anhydrase solution were added to 500 μl of Tris-HCl, pH 7.5 and 50 μl of 50 mM pNPA in acetonitrile. Kinetics of hydrolysis of pNPA was observed by the increase in absorbance at 400 nm due to the appearance of the paranitrophenolate ion (pNP^−). In all cases, the observed hydrolysis rate in absorbance units per second (AU/s) under these conditions was constant (pseudo-zero order). Hydrolysis rates were corrected for the hydrolysis of pNPA by the buffer for each type of buffer used. […] The active protein concentration data was reproducible to within 5-8% in replicated experiments.

[3] = biological target: T2, insulin binding to immobilized monoclonal anti-insulin (Homo sapiens, UniProt P01308); assay: Surface plasmon resonance (Biacore 3000): globular protein association/dissociation kinetics in buffer with additive; conditions: for ka / kd: pH 7.4, estimated error 15%
T2 construct: purchased Sigma-Aldrich (insulin); Fitzgerald Industries (antibody) I8530; 10-130 clone M322214
Description: Surface plasmon resonance experiments were conducted to measure the effect of added ArgHCl and GuHCl on the kinetics of globular protein association and dissociation versus an equimolar salt control (NaCl). The data set shown in the figure is a composition of 8 different concentration runs plus replicates, for a total of 16 runs. At t=140 sec, the flow cell with immobilized anti-insulin was exposed to a constant concentration of insulin in the range of 2 to 188 nM for 3 minutes. During this 3 minutes, the antibody and antigen were free to associate and dissociate. The net reaction is the binding of free antigen in solution, resulting in an increase in detector response proportional to the mass of antigen bound. At t=320 sec, the insulin concentration in the flow cell inlet is returned to zero, and the bound antigen then dissociates from the surface. All 16 runs were simultaneously fit to a binding model by minimizing the squared residuals to yield the association and dissociation rate constants, ka and kd. This process was repeated to yield association, dissociation, and equilibrium constant data for the model systems in various buffers as shown in Table 4.
Globular Protein Association Kinetics—Protein association and dissociation rate constants, ka and kd, were measured for globular proteins via surface plasmon resonance on a Biacore 3000 instrument. Monoclonal anti-insulin was immobilized on a Biacore CM5 sensor chip via amine coupling. The amount of immobilized antibody was selected to give a detector response in the range of 50-100 RU when antigen was present. A reference surface was created by activating and deactivating the surface without coupling an antibody to it.
Different concentrations of insulin in the nanomolar range ([…]) were prepared by dilution and injected serially into the antibody-containing and reference flow cells. […] Pocker, Y. & Biswas, Subhasis, B. (1981) Biochemistry 20, 4354-4361. The dissociation rate was sufficiently fast in buffer that a regeneration buffer was not required. Kinetic constants were extracted by simultaneous fitting of ka and kd to each set of sensorgrams using a 1:1 kinetic model in the BIAevaluation 3.0 software package.

[4] = 0.5 M additive, relative to HBS-EP + 0.5 M NaCl
[5] = 0.5M, relative to 0.5M NaCl control

T1 sequence (P00921 whole entry): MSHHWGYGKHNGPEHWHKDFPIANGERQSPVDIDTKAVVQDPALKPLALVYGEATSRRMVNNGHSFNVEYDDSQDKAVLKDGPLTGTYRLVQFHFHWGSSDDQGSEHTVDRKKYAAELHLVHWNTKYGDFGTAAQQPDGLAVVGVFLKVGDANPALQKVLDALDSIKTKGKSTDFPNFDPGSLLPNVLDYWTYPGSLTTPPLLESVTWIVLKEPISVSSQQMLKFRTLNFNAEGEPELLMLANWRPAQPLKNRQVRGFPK
T2 sequence (P01308 25-54 limits assumed): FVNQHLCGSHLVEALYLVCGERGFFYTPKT
T2 sequence (P01308 90-110 limits assumed): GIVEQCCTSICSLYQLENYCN

## [Cl-].[Na+] [NaCl, sodium chloride]
Carbonic anhydrase II [1]; time 2 min, [U]0 = 5 μM
  A2, percentage of total carbonic anhydrase: 0%
  A3-5, percentage of total carbonic anhydrase: 0%
  A6-15, percentage of total carbonic anhydrase: 0%
  M (monomer), percentage of total carbonic anhydrase: 56%
  Large multimers, percentage of total carbonic anhydrase: 44%
Carbonic anhydrase II [1]; time 20 min, [U]0 = 5 μM
  A2, percentage of total carbonic anhydrase: 0%
  A3-5, percentage of total carbonic anhydrase: 0%
  A6-15, percentage of total carbonic anhydrase: 0%
  M (monomer), percentage of total carbonic anhydrase: 56%
  Large multimers, percentage of total carbonic anhydrase: 44%
Carbonic anhydrase II [1]; time 38 min, [U]0 = 5 μM
  A2, percentage of total carbonic anhydrase: 0%
  A3-5, percentage of total carbonic anhydrase: 0%
  A6-15, percentage of total carbonic anhydrase: 0%
  M (monomer), percentage of total carbonic anhydrase: 56%
  Large multimers, percentage of total carbonic anhydrase: 44%
Carbonic anhydrase II [2]
  α/α0: 1
  α (refolding selectivity parameter, kr/kagg): 9.3 µM
  order of yield of active protein as a function of buffer additive: NaCl<<ArgHCl<GuHCl
[3]; 0.5 M additive in HBS-EP
  ka: 44000 M⁻¹ s⁻¹
  kd: 0.014 s⁻¹

## Cl.N=C(N)NCCC[C@H](N)C(=O)O [ArgHCl, arginine hydrochloride]
Carbonic anhydrase II [1]; 0.5M added, versus 0.5M NaCl
  yield of monomeric protein: significantly increased
Carbonic anhydrase II [1]; 0.5M additive, compared among the three buffers
  average aggregate molecular weight (ignoring the monomer): lowest
Carbonic anhydrase II [1]; time 2 min, [U]0 = 20 μM
  A2, percentage of total carbonic anhydrase: 30%
  A3-5, percentage of total carbonic anhydrase: 25%
  A6-15, percentage of total carbonic anhydrase: 21%
  M (monomer), percentage of total carbonic anhydrase: 22%
  Large multimers, percentage of total carbonic anhydrase: 2%
Carbonic anhydrase II [1]; time 20 min, [U]0 = 20 μM
  A2, percentage of total carbonic anhydrase: 7%
  A3-5, percentage of total carbonic anhydrase: 14%
  A6-15, percentage of total carbonic anhydrase: 26%
  M (monomer), percentage of total carbonic anhydrase: 54%
  Large multimers, percentage of total carbonic anhydrase: −1%
Carbonic anhydrase II [1]; time 38 min, [U]0 = 20 μM
  A2, percentage of total carbonic anhydrase: 4%
  A3-5, percentage of total carbonic anhydrase: 11%
  A6-15, percentage of total carbonic anhydrase: 24%
  M (monomer), percentage of total carbonic anhydrase: 62%
  Large multimers, percentage of total carbonic anhydrase: −1%
Carbonic anhydrase II [1]; time 1500 min, [U]0 = 20 μM
  A2, percentage of total carbonic anhydrase: 0%
  A3-5, percentage of total carbonic anhydrase: 0%
  A6-15, percentage of total carbonic anhydrase: 19%
  M (monomer), percentage of total carbonic anhydrase: 80%
  Large multimers, percentage of total carbonic anhydrase: 1%
Carbonic anhydrase II [2]
  α/α0: 5.0
  α (refolding selectivity parameter, kr/kagg): 47 µM
  order of yield of active protein as a function of buffer additive: NaCl<<ArgHCl<GuHCl
[3]; 0.5 M additive in HBS-EP
  ka: 12000 M⁻¹ s⁻¹
  kd: 0.022 s⁻¹
[3]; 0.5 M additive in HBS-EP, KD ≡ kd/ka
  Kd: 1.8 µM
[3]; [4]
  ka/ka0: 0.27
  kd/kd0: 1.6
[3]; [5]
  effect on association rate of insulin and anti-insulin: slowed
  effect on dissociation rate of insulin and anti-insulin: accelerated
